For experiment [1], the system named is JAK2-pSTAT5 (GM-CSF induced pSTAT5). Put plainly: GM-CSF induced pSTAT5 in human PBMC. It counts as cell-based. To be noted: 20 min, 5 ng/mL GM-CSF for 20 minutes, legend words it as IC50. The procedure:
(§1) Human PBMC are isolated from buffy coat and are stored frozen for assays as needed. Cells for assay are thawed and resuspended in complete media containing serum, then cells are diluted to 1.67 E6 cells/ml so that 120 ul per well is 200,000 cells. 15 ul of compound or DMSO is added to the well at the desired concentrations and incubated at 1 hr at 37 C. 15 ul of stimulus (final concentration of 1.7 ng/mL IL-12) is added for 30 minutes prior to pSTAT4 and total STAT4 analysis using cell lysates prepared and analyzed by MSD reagents as per manufacturer protocol. The final DMSO concentration of compound in the assay is 0.1%.
Cells are prepared for analysis as in the above procedure and 15 ul of GM-CSF (final concentration 5 ng/mL) is added for 20 minutes prior to pSTAT5 and total STAT5 analysis using cell lysates prepared and analyzed by MSD reagents as per manufacturer protocol. The final DMSO concentration of compound in the assay is 0.1%.

The subject of experiment [2] is Tyk2-pSTAT4 (IL-12 induced pSTAT4). Put plainly: IL-12 induced pSTAT4 in human PBMC. Format: cell-based. To be noted: 0.5 h, 1.7 ng/mL IL-12 for 30 minutes, legend words it as IC50. The procedure: as §1
The next experiment has as its target JAK2 (Invitrogen) kinase (Homo sapiens (Human), UniProt O60674). Put plainly: JAK2 radioactive kinase assay. To be noted: ATP at 10 μM. It counts as biochemical. As for the experimental part: Peptide substrate, [KKSRGDYMTMQIG], (20 μM) is prepared in reaction buffer (20 mM Hepes pH 7.5, 10 mM MgCl2, 1 mM EGTA, 0.02% Brij35, 0.02 mg/mL BSA, 0.1 mM […], 2 mM DTT, 1% DMSO. TYK2 (Invitrogen) kinase is added, followed by compounds in DMSO. ^33PATP is added to initiate the reaction with ATP at 10 μM. Kinase reaction is incubated for 120 min at room temp and reactions are spotted onto P81 ion exchange paper (Whatman #3698-915), and then washed extensively in 0.75% phosphoric acid, prior to reading the radioactivity counts. For JAK2 (Invitrogen) kinase assay the peptide substrate poly[Glu:Tyr](4:1), 0.2 mg/ml is used, in the reaction carried out the same as for TYK2.

SMILES strings stand for the structures. A value given as a limit tells only on which side of the number the result lay.

As a reminder, the EC50 is the concentration that produces a half-maximal response. High values mean weaker potency, low ones greater potency. A word on the Ki: it is a dissociation constant, usually derived from enzyme kinetics or from competition with a known ligand.

JAK2 (Invitrogen) kinase, sequence (O60674 whole entry): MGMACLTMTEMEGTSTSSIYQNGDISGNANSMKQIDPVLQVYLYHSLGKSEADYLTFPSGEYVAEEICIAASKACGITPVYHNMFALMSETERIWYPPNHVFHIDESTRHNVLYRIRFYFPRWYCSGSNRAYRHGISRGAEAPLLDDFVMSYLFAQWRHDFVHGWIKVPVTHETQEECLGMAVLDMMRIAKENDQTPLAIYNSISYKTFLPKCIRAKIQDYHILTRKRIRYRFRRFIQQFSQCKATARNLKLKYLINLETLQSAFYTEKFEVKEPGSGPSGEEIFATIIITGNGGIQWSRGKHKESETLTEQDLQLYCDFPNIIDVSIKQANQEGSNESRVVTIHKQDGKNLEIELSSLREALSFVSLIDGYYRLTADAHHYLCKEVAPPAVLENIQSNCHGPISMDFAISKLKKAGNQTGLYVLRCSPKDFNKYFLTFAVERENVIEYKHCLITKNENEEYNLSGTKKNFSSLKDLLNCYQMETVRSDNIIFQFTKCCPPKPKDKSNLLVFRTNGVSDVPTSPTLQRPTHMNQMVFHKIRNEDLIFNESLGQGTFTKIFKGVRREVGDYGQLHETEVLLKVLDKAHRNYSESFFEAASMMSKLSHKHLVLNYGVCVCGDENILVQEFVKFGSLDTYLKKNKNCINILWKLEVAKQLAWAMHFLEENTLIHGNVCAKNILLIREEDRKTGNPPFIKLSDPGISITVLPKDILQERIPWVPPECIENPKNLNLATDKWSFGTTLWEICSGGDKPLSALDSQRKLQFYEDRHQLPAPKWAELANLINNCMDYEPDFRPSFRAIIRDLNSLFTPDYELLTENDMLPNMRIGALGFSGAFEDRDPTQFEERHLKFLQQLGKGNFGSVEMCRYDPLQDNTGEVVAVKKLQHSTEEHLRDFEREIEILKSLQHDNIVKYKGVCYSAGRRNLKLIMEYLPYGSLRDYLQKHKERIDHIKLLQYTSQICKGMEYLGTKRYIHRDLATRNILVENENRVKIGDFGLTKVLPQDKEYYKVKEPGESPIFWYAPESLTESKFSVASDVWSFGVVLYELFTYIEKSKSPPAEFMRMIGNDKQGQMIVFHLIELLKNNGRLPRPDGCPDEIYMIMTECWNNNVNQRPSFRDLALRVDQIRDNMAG

The compound `CN1CCN(c2ccn(-c3cc(-c4c(F)cccc4F)nc4c3C(=O)NC4)n2)CC1` [I-5, 2-(2,6-difluorophenyl)-4-(3-(4-methylpiperazin-1-yl)-1H-pyrazol-1-yl)-6,7-dihydro-5H-pyrrolo[3,4-b]pyridin-5-one] yielded an EC50 in experiment [1] greater than 2000 nM.

In the case of `N#Cc1cccc(F)c1-c1cc(-n2ccc(N3CCC(N4CCOCC4)CC3)n2)c2c(n1)CNC2=O` [I-59, 3-fluoro-2-(4-(3-(4-morpholinopiperidin-1-yl)-1H-pyrazol-1-yl)-5-oxo-6,7-dihydro-5H-pyrrolo[3,4-b]pyridin-2-yl)benzonitrile], the EC50 fell in the range of 100 to 2000 nM in experiment [2] and 100 to 2000 nM in experiment [1] (Homo sapiens, PBMC).

Regarding `CO[C@@H]1CN(c2ccn(-c3cc(-c4c(F)cccc4C#N)nc4c3C(=O)NC4)n2)C[C@@H]1O` [I-154, 3-fluoro-2-(4-(3-((3S,4R)-3-hydroxy-4-methoxypyrrolidin-1-yl)-1H-pyrazol-1-yl)-5-oxo-6,7-dihydro-5H-pyrrolo[3,4-b]pyridin-2-yl)benzonitrile], at JAK2 (Invitrogen) kinase, the Ki was in the range of 0.1 to 10 nM.

These data come from patent US11434240B2, “TYK2 inhibitors and uses thereof” (Nimbus Lakshmi, Inc., priority 2015, dated 2022).
